In patent publication US3983239A, “Hexahydro-γ-carboline derivatives and their salts” (priority 1974, dated 1976):
“Also recorded” adds a separate entry of the source. Like-named read-outs stand apart in the source and are kept apart here.

How the values were obtained:
[1] = test system: central nervous system; test: Depression of the central nervous system (overall); details: in vivo
Source text: 2. Depression of the central nervous system The compounds of the present invention show the same central nervous system depressing pattern as the existing neuroleptics, such as an inhibiting activity of locomotion, an inhibiting activity of conditioned avoidance response, a cataleptogenic activity, a muscle relaxant activity, an inhibiting activity of self-stimulation, and an anti-methamphetamine activity in terms of locomotor activity.

[2] = test system: conditioned avoidance response; test: Inhibiting activity of conditioned avoidance response, mice; assay type: in vivo; details: Mus musculus, po; mice, p.o.; read-out: ED50 value, inhibiting activity of conditioned avoidance response
[3] = test system: self-stimulation; test: Inhibiting activity of self-stimulation, rats; assay type: in vivo; details: Rattus norvegicus, po; rats, p.o.; read-out: ED50 value, inhibiting activity of self-stimulation
Source text: 8) J. Olds et al; J. Comp. Physiol. Psychol., Vol. 47, page

[4] = test system: locomotion; test: Inhibiting activity of locomotion, mice (Animex method); assay type: in vivo; details: Mus musculus, po; mice, p.o.; read-out: ED50 value, inhibiting activity of locomotion
[5] = Acute toxicity, mice; details: mouse, in vivo, observed 7 days
Source text: (§1) Male and female STD-dd Y mice, weighing 20 to 22 g (each group: 10 mice) and male Wistar HLA rats, weighing 250 to 300 g (each group: 10 to 20 rats) were used.

[6] = test system: amphetamine; details: in vivo; cited from earlier work
[7] = test system: muscle relaxant activity; test: Muscle relaxant activity, rats; assay type: in vivo; details: Rattus norvegicus, rats, read-out: ED50 value, muscle relaxant activity
[8] = test system: catalepsy; test: Cataleptogenic activity, rats; assay type: in vivo; details: Rattus norvegicus, po; rats, p.o.; read-out: ED50 value, cataleptogenic activity
[9] = test system: methamphetamine-induced stereotypy; test: Potentiation of methamphetamine-induced stereotypy; assay type: in vivo, male Wistar HLA rats; parameters: key: ---: Marked antagonism; --: Moderate antagonism; -: Slight antagonism; 0: No interaction; +: Slight potentiation; ++: Moderate potentiation; +++: Marked potentiation; details: methamphetamine 2 mg/kg i.p.
Experimental: 1. Potentiation of methamphetamine-induced stereotypy
This test was carried out by a modified method of R. T. Naylor (Life Sci., Vol. 10, page 909, 1971).
To male Wistar HLA rats, weighing 200 to 250 g (each group: 6 rats), were intraperitoneally administered the compounds to be tested. After 20 minutes, methamphetamine (2 mg/kg) was intraperitoneally administered to the test animals, and then the appeared stereotypy was observed. The effects of the test compounds were evaluated by the intensity of the stereotypy and the termination thereof.

[10] = test system: locomotion; test: Inhibiting activity of locomotion, rats (Open-field method); assay type: in vivo; details: Rattus norvegicus, rats, read-out: ED50 value, inhibiting activity of locomotion
Source text: 3) Open-field method [C.S. Hall; J. Comp. Physiol. Psychol.

[11] = cited from earlier work
[12] = test system: conditioned avoidance response; test: Inhibiting activity of conditioned avoidance response, rats (Shuttle box method); assay type: in vivo; details: Rattus norvegicus, po; rats, p.o.; read-out: ED50 value, inhibiting activity of conditioned avoidance response
[13] = Acute toxicity, rats; details: rat, in vivo, male, observed 7 days
Source text: as §1

[14] = test system: homovanillic acid (HVA) in brain; test: Effect on homovanillic acid (HVA) in brain; assay type: in vivo, male Wistar rats; details: Rattus norvegicus, read-out: dose that remarkably increased the HVA in the brain
Experimental: 3. Effect on homovanillic acid (HVA for short) in brain
This test was carried out by a modified method of T. Karasawa et al. [Life Sci., Vol. 15, page 1465 (1974)].
To male Wistar rats, weighing 160 to 200 g (each group: 5 rats), was administered 8-methyl-2-[γ-(p-fluorobenzoyl)propyl]-2,3,4,4a,5,9b-hexahydro-1H-pyrido[4,3-b]indole dihydrochloride (Compound A) intraperitoneally or orally. After 90 minutes in case of the intraperitoneal administration, or after 6 hours in case of the oral administration, the test animals were decapitated, and then the HVA in the brain was measured by a fluorometric method.

[15] = test system: apomorphine-induced gnawing; test: Enhancement of apomorphine-induced gnawing; assay type: in vivo; details: 0.03-0.7 mg/kg s.c., rats
[16] = test system: electroencephalogram (EEG); test: Activation of the electroencephalogram (EEG); assay type: in vivo; details: 5 mg/kg i.v., gallamine immobilized cats

| SMILES | ED50 [2] [mg/kg] | ED50 [3] [mg/kg] | ED50 [4] [mg/kg] | LD50 at 168 h ([5]; ip, male) [mg/kg] | LD50 at 168 h ([5]; iv, male) [mg/kg] | LD50 at 168 h ([5]; po, male) [mg/kg] | LD50 at 168 h ([5]; sc, male) [mg/kg] | ED50 ([7]; ip, i.p.) [mg/kg] | ED50 ([7]; po, p.o.) [mg/kg] | ED50 [8] [mg/kg] | Stereotypy Intensity ([9]; 1.0 mg/kg i.p.) | Stereotypy Termination ([9]; 1.0 mg/kg i.p.) | Stereotypy Intensity ([9]; 2.0 mg/kg i.p.) | Stereotypy Termination ([9]; 2.0 mg/kg i.p.) | Stereotypy Intensity ([9]; 5.0 mg/kg i.p.) | Stereotypy Termination ([9]; 5.0 mg/kg i.p.) | Stereotypy Intensity ([9]; 10.0 mg/kg i.p.) | Stereotypy Termination ([9]; 10.0 mg/kg i.p.) | ED50 ([10]; ip, i.p.) [mg/kg] | ED50 ([10]; po, p.o.) [mg/kg] | other results |
| --- | --- | --- | --- | --- | --- | --- | --- | --- | --- | --- | --- | --- | --- | --- | --- | --- | --- | --- | --- | --- | --- |
| Cc1ccc2c(c1)C1CN(C)CCC1N2 (stereo not drawn) [Dicarbine, 2,8-dimethyl-2,3,4,4a,5,9b-hexahydro-1H-pyrido[4,3-b]indole] | 119 | > 100 | 150 | 153 | 79 | 357 | 237 | 60.3 | > 100 | > 100 | 0 | 0 | + | ++ | ++ | +++ | +++ | +++ | 28.7 | > 200 | central nervous system depressing activities (in words) [1]: far weak in comparison with those of the present compounds; activity against amphetamine [6]: antagonism against amphetamine and also an activity of potentiating the amphetamine-induced stereotypy; activity in clinical trials [11]: antipsychotic activity and a thymoleptic activity; ED50 [12]: > 100 mg/kg |
| Cc1ccc2c(c1)C1CN(CCCC(=O)c3ccc(F)cc3)CCC1N2.Cl.Cl (stereo not drawn) [Compound A, 8-Methyl-2-[γ-(p-fluorobenzoyl)propyl]-2,3,4,4a,5,9b-hexahydro-1H-pyrido[4,3-b]indole dihydrochloride] | 10 | 61.8 | 9.3 | 134 | 59 | 589 | 373 | 3.16 | 11.2 | 34 | 0 | 0 | ++ | ++ | +++ | +++ | +++ | +++ | 2.8 | 33.2 | LD50 at 168 h ([13]; ip): 146 mg/kg; LD50 at 168 h ([13]; iv): 51 mg/kg; LD50 at 168 h ([13]; po): 812 mg/kg; LD50 at 168 h ([13]; sc): 592 mg/kg; central nervous system depressing activities (in words) ([1]; dihydrochloride): somewhat inferior to those of chlorpromazine; also recorded: almost comparable to those of clozapine; also recorded: far superior to those of dicarbine; minimal effective dose ([14]; ip, 1.5 h, i.p., 90 minutes after administration): ≥ 5 mg/kg; minimal effective dose ([14]; po, 6 hours after administration): ≥ 13 mg/kg; LD50 at 168 h ([5]; ip, female): 95 mg/kg; LD50 at 168 h ([5]; po, female): 339 mg/kg; incidence of gnawing after apomorphine [15]: increased the incidence of gnawing; ED50 [12]: 23.8 mg/kg; spontaneous EEG, arousal time in the hippocampus [16]: prolongation of arousal time in the hippocampus; spontaneous EEG, cortex [16]: low-voltage high frequency in the cortex |
